{"source": "paper PMC7076710", "about": "“Synthesis, Identification, and Structure–Activity Relationship Analysis of GATA4 and NKX2-5 Protein–Protein Interaction Modulators” (Journal of Medicinal Chemistry, 2019)", "type_in_all_cases": "cell-based", "key": {"[1]": {"target": "T1, GATA4–NKX2-5 transcriptional synergy (Mus musculus, UniProt P42582+Q08369)", "T1 construct": "expressed in transfected cells; host or cells: COS-1", "T1 sequence (Q08369 whole entry)": "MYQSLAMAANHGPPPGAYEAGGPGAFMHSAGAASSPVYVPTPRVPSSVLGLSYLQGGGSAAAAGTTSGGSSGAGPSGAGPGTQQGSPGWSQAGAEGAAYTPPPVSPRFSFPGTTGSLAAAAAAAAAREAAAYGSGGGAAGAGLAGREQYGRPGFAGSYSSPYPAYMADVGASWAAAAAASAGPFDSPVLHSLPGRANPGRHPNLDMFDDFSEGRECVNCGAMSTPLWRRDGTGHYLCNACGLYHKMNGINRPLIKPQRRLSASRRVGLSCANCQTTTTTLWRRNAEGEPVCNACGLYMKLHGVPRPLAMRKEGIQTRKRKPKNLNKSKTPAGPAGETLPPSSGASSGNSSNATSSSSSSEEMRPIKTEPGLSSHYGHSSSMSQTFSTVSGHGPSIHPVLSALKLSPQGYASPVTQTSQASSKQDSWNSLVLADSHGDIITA", "T1 sequence (P42582 whole entry)": "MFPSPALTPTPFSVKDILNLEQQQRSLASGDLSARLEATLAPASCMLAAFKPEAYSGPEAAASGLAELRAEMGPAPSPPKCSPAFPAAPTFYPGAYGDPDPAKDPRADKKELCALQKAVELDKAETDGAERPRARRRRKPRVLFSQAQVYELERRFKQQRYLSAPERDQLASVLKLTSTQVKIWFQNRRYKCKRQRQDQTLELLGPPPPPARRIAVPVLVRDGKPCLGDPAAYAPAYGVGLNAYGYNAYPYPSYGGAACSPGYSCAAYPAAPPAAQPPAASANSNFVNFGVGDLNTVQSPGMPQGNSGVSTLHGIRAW", "assay": "GATA4–NKX2-5 transcriptional synergy luciferase reporter assay (3xNKE reporter, COS-1 cells)", "conditions": "for activity at 3 µM / activity at 10 µM: COS-1; for Synergy (% of control) Mean ± SD: 10 μM, COS-1 cells, 24 h"}, "[2]": {"target": "T2, NKX2-5 transcriptional activity (Mus musculus, UniProt P42582)", "T2 construct": "expressed in transfected cells; host or cells: COS-1", "T2 sequence (P42582 whole entry)": "as above", "assay": "NKX2-5 luciferase reporter assay (3xNKE reporter, COS-1 cells)", "conditions": "for activity at 3 µM: COS-1, read-out: NKX.3µM"}, "COS-1 cells": {"system": "COS-1 cells", "assay": "ATP assay (CellTiter-Glo cell viability)", "conditions": "24-h exposure; for reduction of cell viability (ATP content): 10 μM", "description": "To investigate the toxicity as a potential cause of decreased or increased activity in luciferase reporter gene assays, we tested a set of 40 active compounds in the COS-1 cell line used for the luciferase assays. Concentration-dependent toxic effects were investigated using the lactate dehydrogenase (LDH) assay to detect necrosis and the 3-(4,5-dimethylthiazol-2-yl)-2,5-diphenyltetrazolium bromide (MTT) assay as a measure of cell viability. […] For the data analysis, compounds were classified as toxic (Figures 5 and 7) if they induced a >10% decrease in cell viability in the MTT assay at the concentration of 10 μM. The most toxic compounds (35a, 35d, 54, 58, and 63–65) in the MTT assay all contained a phenyl substituent in the southern part ring, while the ortho-nitrophenyl-derivative 39g and the phenyl-substituted thiophene 47t were nontoxic. Higher flexibility in the central parts of the ethers (35a, 35d) and N-acylated amines (58, 64) might contribute to their toxicity, because less rigid compounds are more likely to have affinity to various biological targets. Such interactions can cause toxicity. To confirm and validate the results from MTT assays, we tested three nontoxic (2, 47s, and 72) and three toxic (1, 35a, and 58) compounds in a cell viability assay measuring intracellular ATP content.\nFigure 5 Effects of selected compounds on COS-1 cell viability. (A) Compound-induced necrosis was quantified with the LDH assay after a 24-h compound exposure. The data are presented as cytotoxicity percentage (% of maximal LDH release). (B) Cell viability was analyzed with the MTT assay after a 24-h compound exposure. (A,B) The data are means from 2–3 independent experiments with 3 replicate wells in each and are presented as % of control (vehicle-treated cells). The compounds have been grouped on the basis of the structure of the central part: a, amide; b, ether; c, N-acylated amine; d, amine; and e, imine. (C) The effects of selected compounds on cell viability as determined by ATP content after a 24-h compound exposure. The data are mean + SEM from three independent experiments and are presented as % of vehicle-treated cells.\nA selected set of compounds were tested also in the ATP assay by using CellTiter-Glo Luminescent Cell Viability assay (Promega). Subculturing and treatment of COS-1 cells were otherwise performed similar to that in the MTT test, but the final volume of treatment was 200 μL per well. Doxorubicin was used as a positive control in the assay. After treatment, the plates were equilibrated at room temperature for 30 min, after which the media was removed and cells were washed with 100 μL of PBS. Next, 50 μL of fresh media and 50 μL of mixed CellTiter Glo Reagent were added to the plate. The contents of the plates were mixed for 2 min, and incubated at room temperature for 15 min. The luminescence was measured with VarioskanTM LUX Multimode Plate Reader (Thermo Fisher Scientific, Waltham, MA) using SkanItTM Software 5.0."}, "[3]": {"conditions": "3 µM, luciferase reporter activity relative to control"}, "[4]": {"conditions": "10 µM, luciferase reporter activity relative to control"}, "[5]": {"conditions": "3 µM, luciferase reporter activity, % of control"}}, "note": "Where two headings read alike, the source gives them in different places."}
{"compound": "CCN(CC)c1ccc(NC(=O)c2cnsc2)cc1", "note": "[Compound 47s]", "values": [{"measurement": "activity at 3 µM", "setting": "[1]; [3]", "result": 66.9, "unit": "%"}, {"measurement": "activity at 3 µM", "setting": "[2]; [3]", "result": 41.8, "unit": "%"}, {"measurement": "toxicity in the ATP assay (in words)", "setting": "COS-1 cells", "result": "no toxicity"}]}
{"compound": "COc1ccc(-c2cc(NC(=O)c3ccc(C(C)(C)C)cc3)n[nH]2)cc1", "note": "[Compound 72]", "values": [{"measurement": "effect on GATA4–NKX2-5 transcriptional synergy (in words)", "setting": "[1]", "result": "inhibition potency"}, {"measurement": "activity at 3 µM", "setting": "[1]; [3]", "result": 66, "unit": "%"}, {"measurement": "activity at 10 µM", "setting": "[1]; [4]", "result": 49.5, "unit": "%"}, {"measurement": "activity at 3 µM", "setting": "[2]; [3]", "result": 74.8, "unit": "%"}, {"measurement": "toxicity in the ATP assay (in words)", "setting": "COS-1 cells", "result": "no toxicity"}]}
{"compound": "Cc1onc(-c2ccccc2)c1COc1ccc(C(=O)OCCC#N)cc1", "note": "[Compound 35a, 2-Cyanoethyl 4-[(5-Methyl-3-phenylisoxazol-4-yl)methoxy]benzoate]", "values": [{"measurement": "activity at 3 µM", "setting": "[1]; [3]", "result": 27.5, "unit": "%"}, {"measurement": "activity at 3 µM", "setting": "[2]; [3]", "result": 39.5, "unit": "%"}, {"measurement": "reduction of cell viability (ATP content)", "setting": "COS-1 cells", "result": "> 10", "unit": "%"}]}
{"compound": "Cc1onc(-c2ccccc2)c1C(=O)N(C1=NC(C)CS1)c1ccc(Cl)cc1", "note": "(stereo not shown) [Compound 2]", "values": [{"measurement": "Synergy (% of control) Mean ± SD", "setting": "[1]", "result": "170 % of control"}, {"measurement": "activity at 3 µM", "setting": "[1]; [5]", "result": 130, "unit": "%"}, {"measurement": "activity at 10 µM", "setting": "[1]; 10 µM, luciferase reporter activity, % of control", "result": 166, "unit": "%"}, {"measurement": "activity at 3 µM", "setting": "[2]; [5]", "result": 102, "unit": "%"}, {"measurement": "toxicity in the ATP assay (in words)", "setting": "COS-1 cells", "result": "no toxicity"}]}
{"compound": "CCC(=O)N(Cc1ccc(N(CC)CC)cc1)c1c(-c2ccccc2)noc1C", "note": "[Compound 58]", "values": [{"measurement": "activity at 10 µM", "setting": "[1]; [4]", "result": 22.3, "unit": "%"}, {"measurement": "activity at 3 µM", "setting": "[2]; [3]", "result": 73.7, "unit": "%"}, {"measurement": "reduction of cell viability (ATP content)", "setting": "COS-1 cells", "result": "> 10", "unit": "%"}]}
{"compound": "N-[4-(Diethylamino)phenyl]-3-methyl-5-(4-methyl-1,2,3-thiadiazol-5-yl)isoxazole-4-carboxamide [Compound 47c]", "values": [{"measurement": "Synergy.3µM", "setting": "[1]; [3]", "result": 45.37}, {"measurement": "Synergy (% of control) Mean ± SD", "setting": "[1]", "result": "24 ± 0.9 % of control"}, {"measurement": "Synergy.10µM", "setting": "[1]; [4]", "result": 23.55}, {"measurement": "NKX.3µM", "setting": "[2]; [3]", "result": 33.64}, {"measurement": "NKX2-5 (% of control) Mean ± SD", "setting": "[2]; 10 μM, COS-1 cells, 24 h", "result": "21 ± 0.88 % of control"}, {"measurement": "NKX.10µM", "setting": "[2]; [4]", "result": 20.92}]}
{"compound": "CCN(CC)c1ccc(NC(=O)c2c(-c3ccccc3)noc2C)cc1", "note": "[Compound 1, N-[4-(Diethylamino)phenyl]-5-methyl-3-phenylisoxazole-4-carboxamide]", "values": [{"measurement": "activity at 3 µM", "setting": "[1]; [5]", "result": 73.7, "unit": "%"}, {"measurement": "activity at 3 µM", "setting": "[2]; [5]", "result": 76, "unit": "%"}, {"measurement": "reduction of cell viability (ATP content)", "setting": "COS-1 cells", "result": "> 10", "unit": "%"}]}
